In BindingDB's records for patent US20250115578 (Chengdu Kanghong Pharmaceutical, 2025):

Biological target: Sodium channel protein type 10 subunit alpha (Homo sapiens, UniProt Q9Y5Y9)
Assay: Electrophysiological Assay
Method: A capillary glass pipette (BF150-86-10, Sutter Instruments) was pulled into a recording electrode with a micropipette puller (P97, Sutter Instruments). The micromanipulator (MP285, Sutter Instruments) was manipulated under an inverted microscope (IX71, Olympus) to make the recording electrode contact the cell and negative pressure suction was applied to achieve a GQ seal. Then, rapid capacitance compensation was performed, and negative pressure was continued, cell membrane was broken by suction, and whole cell recording mode was formed. Then the slow capacitance was compensated and the membrane capacitance and series resistance were recorded without leakage compensation. When the whole cell recording current was stabilized, dosing was initiated, and the next concentration was detected after acting 5 minutes of each drug concentration. Multiple cells were independently repeated during the recording period. All electrophysiological assays were performed at room temperature. Specifically, 6 concentrations (measuring IC50) or 2 concentrations (preliminary screening) were set for each compound, and the percentage of inhibition of sodium channels was determined by calculating the relative percentage of peak current generated before and after each concentration compound treated cells, and the IC50 value or percentage of inhibition at a specific concentration was calculated using IGOR pro software.

Sequence of Sodium channel protein type 10 subunit alpha (Q9Y5Y9 whole entry): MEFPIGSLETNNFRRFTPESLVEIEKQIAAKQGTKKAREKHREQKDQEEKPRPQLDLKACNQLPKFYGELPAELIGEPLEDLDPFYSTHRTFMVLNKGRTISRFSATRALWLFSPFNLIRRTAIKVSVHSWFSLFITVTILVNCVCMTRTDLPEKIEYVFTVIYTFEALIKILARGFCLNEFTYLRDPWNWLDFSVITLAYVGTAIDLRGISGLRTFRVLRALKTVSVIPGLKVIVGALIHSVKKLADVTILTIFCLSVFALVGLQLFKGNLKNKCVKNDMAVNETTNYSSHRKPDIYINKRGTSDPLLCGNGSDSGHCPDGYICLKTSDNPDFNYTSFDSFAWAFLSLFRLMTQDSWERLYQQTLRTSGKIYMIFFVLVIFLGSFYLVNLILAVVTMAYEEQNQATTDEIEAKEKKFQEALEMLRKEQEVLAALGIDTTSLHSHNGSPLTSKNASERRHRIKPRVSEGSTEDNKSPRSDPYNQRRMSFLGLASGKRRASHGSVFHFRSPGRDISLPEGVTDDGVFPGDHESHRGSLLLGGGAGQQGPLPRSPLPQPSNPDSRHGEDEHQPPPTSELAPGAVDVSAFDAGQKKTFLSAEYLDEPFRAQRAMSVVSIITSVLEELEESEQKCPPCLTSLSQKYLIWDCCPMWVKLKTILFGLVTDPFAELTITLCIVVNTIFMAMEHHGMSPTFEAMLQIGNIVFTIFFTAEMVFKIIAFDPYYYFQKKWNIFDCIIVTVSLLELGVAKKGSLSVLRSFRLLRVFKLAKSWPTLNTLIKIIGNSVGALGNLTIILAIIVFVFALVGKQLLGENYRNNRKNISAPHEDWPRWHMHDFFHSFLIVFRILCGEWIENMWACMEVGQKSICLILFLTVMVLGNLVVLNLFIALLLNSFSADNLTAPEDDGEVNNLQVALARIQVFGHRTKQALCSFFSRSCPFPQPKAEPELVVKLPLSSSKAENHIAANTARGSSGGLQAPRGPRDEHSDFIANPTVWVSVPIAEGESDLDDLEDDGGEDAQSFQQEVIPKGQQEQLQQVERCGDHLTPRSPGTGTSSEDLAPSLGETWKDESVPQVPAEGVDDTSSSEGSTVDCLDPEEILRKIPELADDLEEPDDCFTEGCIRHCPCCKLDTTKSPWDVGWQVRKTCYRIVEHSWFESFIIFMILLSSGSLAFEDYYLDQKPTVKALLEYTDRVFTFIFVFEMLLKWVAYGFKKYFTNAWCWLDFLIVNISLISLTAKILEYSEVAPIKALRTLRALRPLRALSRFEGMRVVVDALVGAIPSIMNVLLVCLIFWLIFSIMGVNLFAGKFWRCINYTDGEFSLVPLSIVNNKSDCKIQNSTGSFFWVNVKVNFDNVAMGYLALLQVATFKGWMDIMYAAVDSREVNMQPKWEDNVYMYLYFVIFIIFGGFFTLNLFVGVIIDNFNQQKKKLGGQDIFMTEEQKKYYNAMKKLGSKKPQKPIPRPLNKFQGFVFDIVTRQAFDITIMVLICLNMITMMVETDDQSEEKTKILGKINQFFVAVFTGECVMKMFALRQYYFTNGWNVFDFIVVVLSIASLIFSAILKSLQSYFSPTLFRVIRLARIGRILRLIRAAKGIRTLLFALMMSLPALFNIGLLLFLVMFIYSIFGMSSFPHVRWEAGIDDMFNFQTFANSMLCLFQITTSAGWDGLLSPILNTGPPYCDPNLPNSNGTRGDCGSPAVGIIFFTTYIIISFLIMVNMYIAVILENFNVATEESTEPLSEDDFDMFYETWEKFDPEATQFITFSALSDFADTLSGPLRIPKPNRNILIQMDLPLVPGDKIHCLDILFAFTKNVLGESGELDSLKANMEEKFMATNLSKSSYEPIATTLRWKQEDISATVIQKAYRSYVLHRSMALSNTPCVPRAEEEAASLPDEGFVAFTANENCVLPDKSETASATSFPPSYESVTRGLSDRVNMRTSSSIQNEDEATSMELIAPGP

Structure (SMILES)	IC50
O=C(Nc1ccc[n+]([O-])c1)c1nc2ccccc2nc1N1CCCC(F)(F)CC1 [US20250115578, KH01]	> 100 nM
O=C(Nc1cc[nH]c(=O)c1)c1nc2ccccc2nc1N1CCCC(F)(F)CC1 [US20250115578, KH03]	> 10 nM
O=C(Nc1cn[nH]c(=O)c1)c1nc2ccccc2nc1N1CCCC(F)(F)CC1 [US20250115578, KH04]	66.7 nM
